Converted amounts (≈) assume the structure as drawn. Where two headings read alike, the source gives them in different places.
How the values were obtained:
[1] = test system: Pseudomonas aeruginosa TI-13; experiment: Minimum inhibitory concentration, serial dilution on nutrient agar; type: cell-based
[2] = test system: Klebsiella pneumoniae 22 #3038; experiment: as above; type: cell-based
[3] = test system: Escherichia coli K-12 LA 290 R55; experiment: as above; type: cell-based; settings: K12LA290R55, 18 h
[4] = test system: Escherichia coli K-12 ML 1410; experiment: as above; type: cell-based; settings: K12ML1410, 18 h
[5] = test system: Shigella dysenteriae JS 11910; experiment: as above; type: cell-based; settings: JS11910, 18 h
[6] = test system: Escherichia coli K-12 LA 290 R64; experiment: as above; type: cell-based; settings: K12LA290R64, 18 h
[7] = test system: Escherichia coli K-12 ML 1410 R81; experiment: as above; type: cell-based; settings: 18 h
[8] = test system: Bacillus subtilis PCI 219; experiment: as above; type: cell-based; settings: PCI219, 37° C., 18 hours incubation
[9] = test system: Salmonella typhi T-63; experiment: as above; type: cell-based; settings: Salmonella enterica, 18 h
[10] = test system: Escherichia coli K-12 LA 290 R56; experiment: as above; type: cell-based; settings: K12LA290R56, 18 h
[11] = test system: Providencia Pv 16; experiment: as above; type: cell-based; settings: PV16, 37° C., 18 hours incubation
[12] = test system: Proteus rettgeri GN466; experiment: as above; type: cell-based; settings: Providencia rettgeri
[13] = test system: Escherichia coli K-12 J5R 11-2; experiment: as above; type: cell-based; settings: K12J5R112, 37° C., 18 hours incubation
From the text: (§1) The minimum inhibitory concentration (mcg/ml) of 1-N-[(S)-4-amino-2-hydroxybutyryl]-5,3',4'-trideoxykanamycin B (abbreviated as AHB-trideoxyKMB), 1-N-[(RS)-3-amino-2-hydroxypropionyl]-5,3',4'-trideoxykanamycin B (abbreviated as AHP-trideoxy-KMB) and 1-N-[(S)-4-amino-2-hydroxybutyryl]-5,3',4',6"-tetradeoxykanamycin B (abbreviated as AHB-tetradeoxyKMB) of the formula (II) according to this invention as well as of the new compound 5,3',4',6"-tetradeoxykanamycin B (abbreviated as tetradeoxyKMB) of the formula (III) according to this invention against various microorganisms were determined according to serial dilution method on a nutrient agar medium at 37° C., the estimation being made after 18 hours incubation. For comparison purpose, the minimum inhibitory concentrations of habekacin were also determined in the same manner as stated above.
(§2) The minimum inhibitory concentrations (mcg/ml) of 1-N-[(S)-4-amino-2-hydroxybutyryl]-5,3',4'-trideoxy-6'-N-methylkanamycin B (abbreviated as AHB-trideoxyMKMB), 1-N-[(RS)-3-amino-2-hydroxypropionyl]-5,3',4'-trideoxy-6'-N-methylkanamycin B (abbreviated as AHP-trideoxyMKMB) and 1-N-[(S)-5-amino-2-hydroxyvaleryl]-5,3',4'-trideoxy-6'-N-methylkanamycin B (abbreviated as AHV-trideoxyMKMB) of the formula (IV) according to this invention as well as of the new compound 5,3',4'-trideoxy-6'-N-methylkanamycin B (abbreviated as trideoxyMKMB) of the formula (V) according to this invention against various microorganisms were determined according to serial dilution method on a nutrient agar medium at 37° C., the estimation being made after 18 hours incubation. For comparison purpose, the minimum inhibitory concentrations of 1-N-[(S)-4-amino-2-hydroxybutyryl]-3',4'-dideoxykanamycin B (ie. habekacin) were also determined in the same manner as stated above.

[14] = test system: Shigella flexneri 4b JS11811; experiment: as above; type: cell-based; settings: 4BJS11811, 37° C., 18 hours incubation
From the text: as §1, §2

[15] = test system: Escherichia coli K-12 C 600R/35; experiment: as above; type: cell-based; settings: K12C600R/35, 37° C., 18 hours incubation
From the text: as §1, §2

[16] = test system: Serratia marcescens; experiment: as above; type: cell-based; settings: 37° C., 18 hours incubation
[17] = test system: Escherichia coli K-12 ML 1629; experiment: as above; type: cell-based
[18] = test system: Staphylococcus aureus Smith; experiment: as above; type: cell-based; settings: 37° C., 18 hours incubation
[19] = test system: Klebsiella pneumoniae PCI 602; experiment: as above; type: cell-based
[20] = Acute toxicity by intravenous injection in mice; settings: mouse, in vivo
[21] = test system: Serratia SOU; experiment: Minimum inhibitory concentration, serial dilution on nutrient agar; type: cell-based; settings: 37° C., 18 hours incubation
[22] = test system: Staphylococcus aureus 209P; experiment: as above; type: cell-based; settings: 37° C., 18 hours incubation
[23] = test system: Sarcina lutea PCI 1001; experiment: as above; type: cell-based; settings: Micrococcus luteus
[24] = test system: Escherichia coli JR66/W677; experiment: as above; type: cell-based; settings: JR66/W677, 18 h
[25] = test system: Pseudomonas aeruginosa ROS134/PU21; experiment: as above; type: cell-based; settings: ROS134/PU21, 18 h
[26] = test system: bacteria; settings: in words, earlier work / other filings; cited from earlier work
[27] = PCI1001, nutrient agar, 37° C., 18 hours incubation, read-out: MIC
[28] = K12ML1629, nutrient agar, 37° C., 18 hours incubation, read-out: MIC

| Compound | MIC ([1]; TI13, 18 h) | MIC ([2]; 18 h) | MIC [3] | MIC [4] | MIC [5] | MIC [6] | MIC [8] | MIC [9] | MIC [10] | MIC [11] | MIC [13] | MIC [14] | MIC [15] | MIC [16] | MIC [18] | MIC ([19]; PCI602, 18 h) | MIC [21] | MIC [22] | MIC [24] | MIC [25] | other results |
| --- | --- | --- | --- | --- | --- | --- | --- | --- | --- | --- | --- | --- | --- | --- | --- | --- | --- | --- | --- | --- | --- |
| CNC[C@@H]1CC[C@@H](N)[C@@H](O[C@H]2C[C@@H](O[C@H]3O[C@H](CO)[C@@H](O)[C@H](N)[C@H]3O)[C@H](NC(=O)C(O)CN)C[C@@H]2N)O1 (stereo partly drawn) [AHP-trideoxyMKMB, 1-N-[(RS)-3-amino-2-hydroxypropionyl]-5,3',4'-trideoxy-6'-N-methylkanamycin B] | 3.13 µg/mL (≈ 5.83 µM) | 3.13 µg/mL (≈ 5.83 µM) | 6.25 µg/mL (≈ 11.6 µM) | 3.13 µg/mL (≈ 5.83 µM) | 6.25 µg/mL (≈ 11.6 µM) | 3.13 µg/mL (≈ 5.83 µM) | 0.39 µg/mL (≈ 0.727 µM) | 3.13 µg/mL (≈ 5.83 µM) | 3.13 µg/mL (≈ 5.83 µM) | 50 µg/mL (≈ 93.2 µM) | 3.13 µg/mL (≈ 5.83 µM) | 3.13 µg/mL (≈ 5.83 µM) | 1.56 µg/mL (≈ 2.91 µM) | 12.5 µg/mL (≈ 23.3 µM) | < 0.2 µg/mL | 3.13 µg/mL (≈ 5.83 µM) | 50 µg/mL (≈ 93.2 µM) | 0.39 µg/mL (≈ 0.727 µM) | 6.25 µg/mL (≈ 11.6 µM) | 50 µg/mL (≈ 93.2 µM) | MIC [7]: 3.13 µg/mL (≈ 5.83 µM); MIC ([12]; GN466, nutrient agar, 37° C., 18 hours incubation, read-out: MIC): 12.5 µg/mL (≈ 23.3 µM); MIC ([17]; K12ML1629, 18 h): 3.13 µg/mL (≈ 5.83 µM); LD50 [20]: 50 to 100 mg/kg; MIC [23, 27]: 0.78 µg/mL (≈ 1.45 µM) |
| C[C@H]1O[C@H](O[C@@H]2C[C@H](O[C@H]3O[C@H](CN)CC[C@H]3N)[C@@H](N)C[C@H]2NC(=O)[C@@H](O)CCN)[C@H](O)[C@@H](N)[C@@H]1O [AHB-tetradeoxyKMB, 1-N-[(S)-4-amino-2-hydroxybutyryl]-5,3',4',6"-tetradeoxykanamycin B] | 3.13 µg/mL (≈ 6.01 µM) | 1.56 µg/mL (≈ 3 µM) | 1.56 µg/mL (≈ 3 µM) | 1.56 µg/mL (≈ 3 µM) | 1.56 µg/mL (≈ 3 µM) | 0.78 µg/mL (≈ 1.5 µM) | < 0.2 µg/mL | 25 µg/mL (≈ 48 µM) | 0.39 µg/mL (≈ 0.749 µM) | 25 µg/mL (≈ 48 µM) | 0.78 µg/mL (≈ 1.5 µM) | 1.56 µg/mL (≈ 3 µM) | 0.78 µg/mL (≈ 1.5 µM) | 25 µg/mL (≈ 48 µM) | < 0.2 µg/mL | – | 100 µg/mL (≈ 192 µM) | < 0.2 µg/mL | 1.56 µg/mL (≈ 3 µM) | 100 µg/mL (≈ 192 µM) | MIC ([12]; GN466, 18 h): 1.56 µg/mL (≈ 3 µM); MIC [17, 28]: 0.78 µg/mL (≈ 1.5 µM); MIC ([19]; PCI602, nutrient agar, 37° C., 18 hours incubation, read-out: MIC): 0.78 µg/mL (≈ 1.5 µM); LD50 [20]: 25 to 50 mg/kg; MIC [23, 27]: 0.78 µg/mL (≈ 1.5 µM) |
| NCC[C@H](O)C(=O)N[C@@H]1C[C@H](N)[C@@H](O[C@H]2O[C@H](CN)CC[C@H]2N)[C@H](O)[C@H]1O[C@H]1O[C@H](CO)[C@@H](O)[C@H](N)[C@H]1O [Habekacin, 1-N-[(S)-4-amino-2-hydroxybutyryl]-3',4'-dideoxykanamycin B, reference compound] | – | – | 6.25 µg/mL (≈ 11.3 µM) | 6.25 µg/mL (≈ 11.3 µM) | 12.5 µg/mL (≈ 22.6 µM) | 3.13 µg/mL (≈ 5.66 µM) | < 0.2 µg/mL | 1.56 µg/mL (≈ 2.82 µM) | 3.13 µg/mL (≈ 5.66 µM) | 25 µg/mL (≈ 45.2 µM) | 1.56 µg/mL (≈ 2.82 µM) | 6.25 µg/mL (≈ 11.3 µM) | 1.56 µg/mL (≈ 2.82 µM) | 50 µg/mL (≈ 90.5 µM) | < 0.2 µg/mL | 1.56 µg/mL (≈ 2.82 µM) | > 100 µg/mL | 0.39 µg/mL (≈ 0.706 µM) | 6.25 µg/mL (≈ 11.3 µM) | > 100 µg/mL | MIC ([1]; TI13, nutrient agar, 37° C., 18 hours incubation, read-out: MIC): 3.13 µg/mL (≈ 5.66 µM); MIC ([2]; nutrient agar, 37° C., 18 hours incubation, read-out: MIC): 3.13 µg/mL (≈ 5.66 µM); antibacterial activity [26]: effective against dibekacin-resistant bacteria; MIC ([12]; GN466, 18 h): 12.5 µg/mL (≈ 22.6 µM); MIC [17, 28]: 3.13 µg/mL (≈ 5.66 µM); MIC ([23]; PCI1001, 18 h): 1.56 µg/mL (≈ 2.82 µM) |
